The NIST ThermoML archive (doi:10.1021/acs.jced.8b00844)
± gives the expanded uncertainty stated by the source.

What was measured:
[1] = 298.15 K; 101.33 kPa; Liquid; Vibrating tube method
[2] = refractive index (Na D-line) (dimensionless); conditions: 298.15 K; 101.33 kPa; Liquid; Standard Abbe refractometry

| Compound | mass density [1] [kg/m3] | refractive index [2] |
| --- | --- | --- |
| CC(=O)OC(C)C [1-methylethyl ethanoate] | 867.6 ± 16 | 1.3701 ± 0.012 |
| CC(C)O [propan-2-ol] | 781.4 ± 16 | 1.375 ± 0.012 |
| O [water] |  | 1.3325 ± 0.012 |
